What was measured:
xenograft mouse model = details: oral administration; cited from earlier work
[1] = oral administration, rat; cited from earlier work
[2] = Determination of oral bioavailability of Abiraterone conjugates (plasma AUClast after oral gavage); format: in vivo; parameters: key to AUClast (total amount abiraterone and conjugate): AUClast value for Zytiga; +: 1.1-6-fold increase compared to Zytiga; ++: >7-fold increase compared to Zytiga; details: female Beagle dogs; for AUClast (total amount abiraterone and conjugate): single dose 15 μmole/kg by oral gavage, 24 h, fold increase compared to Zytiga; for Conversion rate to Abiraterone: AUClast Abiraterone/AUClast conjugate + AUClast Abiraterone × 100%, oral 15 μmole/kg
Protocol: (§1) Relative and absolute bioavailability may be determined in different animal models and according to different protocols. The following protocol is typical for determining bioavailability in female Beagle dogs. The animals were deprived from food over a time period of 8 h prior to administration and 2 h after administration of the test molecules. Water was supplied without limitation.
(§2) On the study day, the animals received test molecules, at a single dose of 15 μmole/kg, by oral gavage, formulated in mixtures of propylene glycol, ethanol and 0.9% NaCl+5% mannitol in water. Blood samples were collected from the jugular vein on the following time points: 0.25, 0.5, 1, 2, 4, 8 and 24 hours after dosing.
(§3) Pharmacokinetic parameters were calculated from concentration versus time data using non-compartmental pharmacokinetic methods using Phoenix pharmacokinetic software. Data are compared to Zytiga to establish improvement of its oral bioavailability by the Abiraterone conjugates.

β-glucosidase = assay: Enzymatic removal of the glucose moiety (treatment with β-glucosidase), conversion to parent drug
[3] = Determination of oral bioavailability of Kalydeco conjugates; format: in vivo, Beagle dogs; parameters: key to AUClast (total amount Kalydeco and conjugate): AUClast value for Kalydeco; +: 1.1-6-fold increase compared to Kalydeco; details: for AUClast (total amount Kalydeco and conjugate): as Example 11 (Beagle dogs, oral gavage), fold increase compared to Kalydeco
Protocol: as §1, §2, §3
In a similar fashion as described in Example 11, the bioavailability increase of Kalydeco conjugate 17 was determined.

[4] = Determination of oral bioavailability of Rotigotine conjugate; format: in vivo, Beagle dogs; parameters: key to AUClast (total amount Rotigotine and conjugate): AUClast value for Rotigotine; ++: >6-fold increase compared to Rotigotine; details: for AUClast (total amount Rotigotine and conjugate): as Example 11 (Beagle dogs, oral gavage), fold increase compared to Rotigotine
Protocol: as §1, §2, §3
In a similar fashion as described in Example 11, the bioavailability increase of Rotigotine conjugate 28 was determined.

[5] = orally administered; cited from earlier work
[6] = oral application in rat; cited from earlier work

| SMILES | AUClast (total amount abiraterone and conjugate) [2] | Conversion rate to Abiraterone [2] | further results |
| --- | --- | --- | --- |
| COc1cc(C)c2cc(O[C@@H]3O[C@H](CO)[C@@H](O)[C@H](O)[C@H]3O)c(C)cc2c1C(C)C | – | – | Reduction of tumor volume (xenograft mouse model): 50% |
| CO[C@@H]1O[C@H](COC(=O)NC(N)=NC(=O)Cc2c(Cl)cccc2Cl)[C@@H](O)[C@H](O)[C@H]1O | – | – | Relative Cmax compared to guanfacine [1]: lower value |
| CC(=O)O[C@H]1CC[C@@]2(C)C(=CC[C@@H]3[C@@H]2CC[C@]2(C)C(c4cccnc4)=CC[C@@H]32)C1 [3-O-Acetate (Zytiga), reference compound] | o | – | – |
| C[C@]12CC[C@H](O[C@@H]3O[C@H](CO)[C@@H](O)[C@H](O)[C@H]3O)CC1=CCC1[C@@H]2CC[C@]2(C)C(c3cccnc3)=CC[C@@H]12 (stereo partly drawn) [3-O-β-Glucoside (33), 3-O-β-D-Glucopyranosyl-abiraterone, reference compound] | + (1.1-6-fold increase compared to Zytiga) | + (1-20%) | – |
| COc1cc(C)c2cc(O)c(C)cc2c1C(C)C [7-hydroxy-3-methoxy cadalene] | – | – | Reduction of tumor volume (xenograft mouse model): did not show tumor volume reduction |
| CN(CO[C@H]1CC[C@@]2(C)C(=CCC3[C@@H]2CC[C@]2(C)C(c4cccnc4)=CC[C@@H]32)C1)C(=O)O[C@@H]1O[C@H](CO)C(O)[C@H](O)C1O (stereo partly drawn) [Compound 7a] | – | +++ (41-50%) | – |
| CCN(CO[C@H]1CC[C@@]2(C)C(=CCC3[C@@H]2CC[C@]2(C)C(c4cccnc4)=CC[C@@H]32)C1)C(=O)O[C@@H]1O[C@H](CO)C(O)[C@H](O)C1O (stereo partly drawn) [Compound 7b] | + (1.1-6-fold increase compared to Zytiga) | ++++ (>51%) | – |
| CCCN(CO[C@H]1CC[C@@]2(C)C(=CCC3[C@@H]2CC[C@]2(C)C(c4cccnc4)=CC[C@@H]32)C1)C(=O)O[C@@H]1O[C@H](CO)C(O)[C@H](O)C1O (stereo partly drawn) [Compound 7c] | ++ (>7-fold increase compared to Zytiga) | +++ (41-50%) | Conversion to Abiraterone and Kalydeco, respectively, upon treatment with β-glucosidase (β-glucosidase): readily converted |
| C[C@]12CC[C@H](OCN(C(=O)O[C@@H]3O[C@H](CO)C(O)[C@H](O)C3O)C3CCC3)CC1=CCC1[C@@H]2CC[C@]2(C)C(c3cccnc3)=CC[C@@H]12 (stereo partly drawn) [Compound 7g] | ++ (>7-fold increase compared to Zytiga) | ++ (21-40%) | – |
| C=CCN(CO[C@H]1CC[C@@]2(C)C(=CCC3[C@@H]2CC[C@]2(C)C(c4cccnc4)=CC[C@@H]32)C1)C(=O)O[C@@H]1O[C@H](CO)C(O)[C@H](O)C1O (stereo partly drawn) [Compound 7l] | ++ (>7-fold increase compared to Zytiga) | +++ (41-50%) | – |
| CN(CO[C@H]1CC[C@@]2(C)C(=CCC3[C@@H]2CC[C@]2(C)C(c4cccnc4)=CC[C@@H]32)C1)C(=O)O[C@@H]1O[C@H](CO)C(O)[C@H](O)C1O (stereo partly drawn) [Compound 13] | ++ (>7-fold increase compared to Zytiga) | ++ (21-40%) | – |
| CCCN(COc1cc(NC(=O)c2c[nH]c3ccccc3c2=O)c(C(C)(C)C)cc1C(C)(C)C)C(=O)O[C@@H]1O[C@H](CO)[C@@H](O)[C@H](O)[C@H]1O [Compound 17] | – | – | Conversion rate to Kalydeco ([3]; AUClast Kalydeco/AUClast conjugate + AUClast Kalydeco × 100%, as Example 11): ++++ (>51%); AUClast (total amount Kalydeco and conjugate) [3]: + (1.1-6-fold increase compared to Kalydeco); Conversion to Abiraterone and Kalydeco, respectively, upon treatment with β-glucosidase (β-glucosidase): readily converted |
| CCCN(COc1cccc2c1CC[C@H](N(CCC)CCc1cccs1)C2)C(=O)O[C@@H]1O[C@H](CO)[C@@H](O)[C@H](O)[C@H]1O [Compound 28] | – | – | Conversion rate to Rotigotine ([4]; AUClast Rotigotine/(AUClast conjugate + AUClast Rotigotine) × 100%, as Example 11): ++++ (>51%); AUClast (total amount Rotigotine and conjugate) [4]: ++ (>6-fold increase compared to Rotigotine) |
| CC(C)(C)c1cc(C(C)(C)C)c(NC(=O)c2c[nH]c3ccccc3c2=O)cc1O [Kalydeco, reference compound] | – | – | AUClast (total amount Kalydeco and conjugate) [3]: o |
| CCCN(CCc1cccs1)[C@H]1CCc2c(O)cccc2C1 [Rotigotine, reference compound] | – | – | AUClast (total amount Rotigotine and conjugate) [4]: o |
| C[C@@H]1C[C@H]2[C@@H]3CCC4=CC(=O)C=C[C@]4(C)[C@@]3(F)[C@@H](O)C[C@]2(C)[C@@]1(O)C(=O)COC1O[C@H](CO)[C@@H](O)[C@H](O)[C@H]1O (stereo partly drawn) [dexamethasone glucoside] | – | – | Fraction of oral dose that reached the caecum as a free steroid [5]: ~60% |
| C[C@]12C=CC(=O)C=C1CC[C@@H]1[C@@H]2[C@@H](O)C[C@@]2(C)[C@H]1CC[C@]2(O)C(=O)CO[C@@H]1O[C@H](CO)[C@@H](O)[C@H](O)[C@H]1O [prednisolone-21-O-β-D-glucoside] | – | – | Increase of serum levels with respect to prednisolone [6]: two-fold increase |

From US11633484B2, “Method for improving the oral bioavailability of a drug” (PharmaCytics B.V., priority 2017, dated 2023)
